Data published in patent publication US20030176358A1, “METHOD OF TREATING ENVIRONMENTAL STRESS” (priority 1997, published 2003).

Legend:
[1] = test system: medial aspect of a human forearm exposed to tobacco smoke or exhaust gas; assay: Testing of suppression of a reduction in the corneum moisture content; assay type: in vivo; conditions: 1.0 wt % aqueous solution applied on human forearm; exposure 10 minutes a day for three months; Corneometer
Experimental: The floating fine particles exposure apparatus shown in FIG. 1 was used to expose a testee's skin to tobacco (with […] of tar and 2.4 mg of nicotine) smoke or exhaust gas fine particles sampled from an exhaust outlet of an automobile for 10 minutes per day for three months consecutively by bringing the medial aspect of the testee's forearm near the discharge port 14 of the floating fine particles of this exposure apparatus 10 (Exposure apparatus 10 uses a three-mouthed flask 11. That is, one of the mouths of the three-mouthed flask is used as an air inlet 12, another is used as an inlet 13 for floating fine particles such as tobacco smoke, and the third mouth is used as a discharge port 14. Floating fine particles such as tobacco smoke flow in through inlet 13 of the floating fine particles and an air flow which flows in through air inlet 12 is used to discharge them through open discharge port 14 of the floating fine particles. An object which is brought close to this discharge port 14 can be exposed to the floating fine particles such as tobacco smoke. Changes in the corneum moisture content after consecutive exposure to tobacco smoke or exhaust gas fine particles for the aforementioned three months were analyzed by using a Corneometer™ (Courage and Khazaka, Germany). The corneum moisture content is one of the indicators of skin conditions and is known to be an indicator which allows determination of the amount of moisture in the corneum. That is, in the case of rough skin, the corneum moisture content is smaller. A higher value of the corneum moisture content indicates better skin conditions. […] For each of these, the blank value of the corneum moisture content was measured. For the controls, “the group with no drug applied” and “the non-exposure group”, which was not exposed to tobacco smoke or exhaust gas, were used. Using the tobacco smoke exposure apparatus shown in the aforementioned FIG. 1, the medial aspect of the human forearm onto which the aforementioned ingredients had been applied was exposed to tobacco smoke or exhaust gas for 10 minutes a day for three months and the corneum moisture content of that area was investigated.

[2] = test system: medial aspect of a human forearm exposed to tobacco smoke; assay: Testing of suppression of oxidation (ultraweak chemiluminescence of the skin); assay type: in vivo; conditions: 1.0 wt % solution applied on human forearm; tobacco smoke 90 seconds; measured for 30 minutes from 60 seconds after exposure
From the text: It is known that a phenomenon called “ultraweak chemiluminescence: CL” occurs on the skin of a living body including a human. This ultraweak chemiluminescence is known to occur in the radiation deactivation process of electrons from the excited state to the ground state.
For example, radicals such as singlet oxygen, excited carbonic acid, excited carbonyl, etc. are known to be this luminescent substance in a living body. Therefore, if this ultraweak chemiluminescence can be monitored, it is possible to adequately identify the oxidation reactions occurring on the human skin.
An 1.0 wt % aqueous solution of each of 1) thiotaurine (from Sogo Pharmaceutical Co., Ltd.), 2) hypotaurine (from Sogo Pharmaceutical Co., Ltd.), 3) glutathione, 4) tannin and 5) vitamin C derivative [L-ascorbic acid phosphate (magnesium)] was applied on the medial aspect of a human forearm. For each of these, a chemiluminescence detector (model OX-7 from Tohoku Electronic Industries Co., Ltd.) whose sample chamber had been modified for a human arm was used to carry out a 30 minute measurement to obtain the blank value of the ultraweak chemiluminescence for each of them. For the control, a solution of 1.0 wt % α-tocopherol was used.
In the same manner as in the aforementioned environmental stress suppression testing which used the corneum moisture content of the skin as the indicator, the medial aspect of a human forearm was brought close to the floating fine particles exposure apparatus shown in FIG. 1 to expose the medial aspect of the forearm, onto which the aforementioned ingredient(s) had been applied, to tobacco smoke for 90 seconds. Sixty seconds after exposure, the ultraweak chemiluminescence of the exposed part was measured for 30 minutes in the same manner as described above. […]

| SMILES | suppression of the aggravation of skin conditions (reduction in the corneum moisture content) due to exposure to tobacco smoke or exhaust gas [1] | reduction of the ultraweak chemiluminescence (oxidation reactions) on the skin [2] |
| --- | --- | --- |
| NCCS(=O)(O)=S [thiotaurine] | effectively prevented | particularly significant |
| NCCS(=O)O [hypotaurine] | effectively prevented | – |
| Cc1c(C)c2c(c(C)c1O)CC[C@@](C)(CCC[C@H](C)CCC[C@H](C)CCCC(C)C)O2 [α-tocopherol, reference compound] | could only minimally suppress | could not effectively suppress |
| CC1=C(/C=C/C(C)=C/C=C/C(C)=C/C=C/C=C(C)/C=C/C=C(C)/C=C/C2=C(C)CCCC2(C)C)C(C)(C)CCC1 [β-carotene, reference compound] | could only minimally suppress | – |
| N[C@@H](CCC(=O)N[C@@H](CS)C(=O)NCC(=O)O)C(=O)O [glutathione] | effectively prevented | particularly significant |
